Results taken from paper PMC11057141, “Untangling the mess of CGRP levels as a migraine biomarker: an in-depth literature review and analysis of our experimental experience” (The Journal of Headache and Pain, 2024).
No end group written: not given here.

Tests used:
[1] = system: CGRP; settings: mean ± SEM, cited from earlier work
[2] = system: CGRP; settings: 32 MWA; exact values not displayed; cited from earlier work
From the text: Table 1 Charasteristics of the studies measuring CGRP in migraine patients | column: Main findings relate to CGRP

[3] = system: CGRP; parameters: method as in PMID 16472331; settings: MWA, mean ± SEM, cited from earlier work
[4] = frozen samples; cited from earlier work
From the text: Another point recurrently mentioned in the literature is the long-term stability of the molecules when frozen. […] This opens up the question about whether c ...

[5] = Influence of sample processing time: serum kept at 4°C before freezing at -80°C, sandwich ELISA; format: in vitro ADME, human
Method: (§1) We tested 4 different ELISA kit references with serum samples, 2 based on competitive ELISA (Biorbyt, UK, ref: orb438605; BMA Biomedicals, Switzerland, ref: S-1198), specifically designed for the detection of total-CGRP, and 2 based on ELISA sandwich (Abbexa, UK, ref: abx257902; CUSABIO, China, ref: CSB-E08210h), designed for the detection of alpha and beta-CGRP, respectively. All 4 of these products were assayed multiple times (at least 4 for each kit reference) to analyse the optimal dilutions of the samples, their reproducibility and their reported concentrations. All the procedures were carried out strictly following the manufacturer’s instructions of use of their products, they were performed by the same researcher, using the same equipment, and in the same facilities. […] All the samples were measured in duplicate, obtained from morning blood extractions, 9–12 am, from patients in a fast of at least 12h. These samples were let to clot for 10–15 min, centrifuged at 3500 rpm for 10 min and then immediately stored at -80°C until assayed. A standard curve was generated for every single batch, and they were calculated using a 4-parameter logistic (4-PL) regression with r^2 > 0.999.
We recruited 6 individuals without history of migraine and subjective absence of headache at the day of the sampling (50% male; age range: 24–65 years). […] The blood was then let to clot for 10 min at room temperature, then centrifuged at 3500 rpm for 10 min to obtain serum. Serum was divided into 4 tubes. First one was immediately stored at -80°C, the other three were kept in the refrigerator at 4°C for, 2, 4 and 24 h respectively before frozen. None of the samples were added peptidase inhibitor. These samples were measured by triplicate.

[6] = infused in humans; cited from earlier work
From the text: The relevance of the peptide goes beyond its use as a therapeutical target, having been proposed as a biomarker in migraine.

[7] = Long-term storage of serum at -80°C, sandwich ELISA; format: in vitro ADME; settings: human serum
Method: as §1
We assayed 11 consecutive samples from previous works (36.4% male; age range: 26–65) that had been stored at -80°C for more than 6 months and which had been assayed altogether before being stored for a month and before reaching this time point.

[8] = system: CGRP; settings: cited from earlier work; for plasma CGRP 4 months after treatment cessation (V2), median (IQR) / plasma CGRP at last injection (V1), median (IQR): EM and CM patients, controls 32.6(21.3–44.6)
From the text: Table 1 Charasteristics of the studies measuring CGRP in migraine patients | column: Concentrations

[9] = system: CGRP; parameters: method as in PMID 8388188; settings: 8 migraineurs, ictal, subcutaneous sumatriptan, mean ± SE; pre-treatment 60 ± 8; cited from earlier work
[10] = system: CGRP; parameters: method as in PMID 15689192; settings: MWA, ictal, cited from earlier work
[11] = EM without aura, mean ± SD, T0 86.9 ± 24.1
[12] = healthy controls, mean ± SD, T0 87.9 ± 21.3

## O=[N+]([O-])OCC(CO[N+](=O)[O-])O[N+](=O)[O-] [nitroglyceri, nitroglycerin]
[1]; basal 15.1 ± 2.0
  plasma CGRP, controls T1: 17.5 pmol/L
  plasma CGRP, controls T2: 16.5 pmol/L
  plasma CGRP, controls T3: 15.3 pmol/L
[1]; basal 18.4 ± 1.7
  plasma CGRP, migraineurs T1: 19.7 pmol/L
  plasma CGRP, migraineurs T2: 22.2 pmol/L
  plasma CGRP, migraineurs T3: 21.0 pmol/L

## Pituitary adenylate cyclase activating peptide-38 (HSDGIFTDSYSRYRKQMAVKKYLAAVLGKRYKQRVKNK; ends and bridges not checked; UniProt P18509 132-169, looked up) [PACAP38]
[2]
  effect of PACAP38 infusion on CGRP concentrations: PACAP38 infusion do not causes changes in CGRP concentrations

## CN(C)CCc1c[nH]c2ccc(Cn3cncn3)cc12 [rizatriptan]
[3]; before rizatriptan 7.4 ± 2.4
  plasma (JV) CGRP, non-responders 1 h: 7.6 pmol/L
  plasma (JV) CGRP, non-responders 2 h: 7.9 pmol/L
  plasma (JV) CGRP, non-responders 4 h: 7.7 pmol/L
  plasma (JV) CGRP, non-responders 6 h: 7.3 pmol/L
  plasma (JV) CGRP, non-responders 12 h: 7.2 pmol/L
[3]; before rizatriptan 12.2 ± 3.2
  plasma (JV) CGRP, responders 1 h: 7.6 pmol/L
  plasma (JV) CGRP, responders 2 h: 3.4 pmol/L
  plasma (JV) CGRP, responders 4 h: 2.6 pmol/L
  plasma (JV) CGRP, responders 6 h: 2.3 pmol/L
  plasma (JV) CGRP, responders 12 h: 2.1 pmol/L

## Calcitonin gene-related peptide [CGRP]
[4]
  effect of frozen storage of 8 months on CGRP concentration: significantly decrease
[5]; first 24 h at 4°C after clotting and immediate centrifugation
  CGRP content in serum stored at 4°C: preserved
[6]
  effect of infusion in humans: induction of migraine-like headaches
[7]
  effect of storage at -80°C of more than 6 months on CGRP levels: decrease

## Vasoactive intestinal peptide (HSDAVFTDNYTRLRKQMAVKKYLNSILN; ends and bridges not checked; UniProt P01282 125-152, looked up) [VIP]
[8]; [11]
  plasma CGRP, VIP infusion Migraine T30: 94.2 pg/mL
  plasma CGRP, VIP infusion Migraine T60: 95.1 pg/mL
  plasma CGRP, VIP infusion Migraine T90: 87.5 pg/mL
  plasma CGRP, VIP infusion Migraine T120: 88.7 pg/mL
  plasma CGRP, VIP infusion Migraine T150: 85.1 pg/mL
  plasma CGRP, VIP infusion Migraine T180: 83.3 pg/mL
[8]; [12]
  plasma CGRP, VIP infusion HC T30: 102.1 pg/mL
  plasma CGRP, VIP infusion HC T60: 109.3 pg/mL
  plasma CGRP, VIP infusion HC T90: 104.1 pg/mL
  plasma CGRP, VIP infusion HC T120: 110.1 pg/mL
  plasma CGRP, VIP infusion HC T150: 97.8 pg/mL
  plasma CGRP, VIP infusion HC T180: 98.2 pg/mL

## beta-CGRP: endogenous neuropeptide encoded in CALCB, differs from alpha-CGRP in 3 of 37 amino acids
[5]; human serum, no peptidase inhibitor, 2 h at 4°C before -80°C, ELISA Abbexa (alpha) / CUSABIO (beta), mean ± SD, 6 subjects, triplicate
  serum concentration after 2 h at 4°C: 4.9 ± 1.7 pg/mL
[5]; human serum, no peptidase inhibitor, 4 h at 4°C before -80°C, ELISA Abbexa (alpha) / CUSABIO (beta), mean ± SD, 6 subjects, triplicate
  serum concentration after 4 h at 4°C: 4.7 ± 1.5 pg/mL
[5]; human serum, no peptidase inhibitor, 24 h at 4°C before -80°C, ELISA Abbexa (alpha) / CUSABIO (beta), mean ± SD, 6 subjects, triplicate
  serum concentration after 24 h at 4°C: 4.4 ± 1.8 pg/mL
[5]; human serum, no peptidase inhibitor, clot 10 min RT, 3500 rpm 10 min, immediately -80°C, ELISA Abbexa (alpha) / CUSABIO (beta), mean ± SD, 6 subjects, triplicate
  serum concentration, deep frozen right away: 4.6 ± 1.6 pg/mL
[7]; 11 samples, ELISA Abbexa (alpha) / CUSABIO (beta), mean ± SD
  serum concentration, measured before one month of storage at -80°C: 4.9 ± 2.0 pg/mL
[7]; same 11 samples, ELISA Abbexa (alpha) / CUSABIO (beta), mean ± SD, p < 0.01 vs first measurement
  serum concentration after more than 6 months of storage at -80°C: 3.0 ± 1.3 pg/mL

## CNS(=O)(=O)Cc1ccc2[nH]cc(CCN(C)C)c2c1 [sumatriptan]
[9]
  plasma (JV) CGRP post-treatment: 40 pmol/L
[10]; n = 6, mean ± SEM, before 16.9 ± 2.8
  plasma CGRP 1 h after sumatriptan, responders: 14.7 pmol/L
[10]; n = 13, mean ± SEM, before 24.3 ± 2.5
  plasma CGRP 1 h after sumatriptan, non-responders: 23.8 pmol/L

B1: Galcanezumab: anti-CGRP monoclonal antibody (antibody, chains of the INN, looked up, V domains shown)
VH: QVQLVQSGAEVKKPGSSVKVSCKASGYTFGNYWMQWVRQAPGQGLEWMGAIYEGTGKTVYIQKFADRVTITADKSTSTAYMELSSLRSEDTAVYYCARLSDYVSGFGYWGQGTTVTVSS
VL: DIQMTQSPSSLSASVGDRVTITCRASKDISKYLNWYQQKPGKAPKLLIYYTSGYHSGVPSRFSGSGSGTDFTLTISSLQPEDFATYYCQQGDALPPTFGGGTKVEIK
[8]
  plasma CGRP 4 months after treatment cessation (V2), median (IQR): 1853.2 pg/mL
  plasma CGRP at last injection (V1), median (IQR): 5439.3 pg/mL

B2: Erenumab: anti-CGRP(-receptor) monoclonal antibody (antibody, chains of the INN, looked up, V domains shown)
VH: QVQLVESGGGVVQPGRSLRLSCAASGFTFSSFGMHWVRQAPGKGLEWVAVISFDGSIKYSVDSVKGRFTISRDNSKNTLFLQMNSLRAEDTAVYYCARDRLNYYDSSGYYHYKYYGMAVWGQGTTVTVSS
VL: QSVLTQPPSVSAAPGQKVTISCSGSSSNIGNNYVSWYQQLPGTAPKLLIYDNNKRPSGIPDRFSGSKSGTSTTLGITGLQTGDEADYYCGTWDSRLSAVVFGGGTKLTVL
[8]; 94 erenumab treated EM and CM, basal 14.1 (8.2–33.9)
  serum CGRP at T1, median (IQR): 13.8 pg/mL
[8]
  plasma CGRP 4 months after treatment cessation (V2), median (IQR): 30.3 pg/mL
  plasma CGRP at last injection (V1), median (IQR): 31.2 pg/mL
[8]; mean ± SD, basal 198.90 ± 27.89
  salivary CGRP at M3, EM without depression: 235.05 pg/mL
[8]; n = 6, mean ± SD, basal 460.69 ± 57.24
  salivary CGRP at M3, CM with depression: 446.99 pg/mL
[8]; n = 10, mean ± SD, basal 194.34 ± 43.75
  salivary CGRP at M3, CM without depression: 256.34 pg/mL

B3: Fremanezumab: anti-CGRP monoclonal antibody (antibody, chains of the INN, looked up, V domains shown)
VH: EVQLVESGGGLVQPGGSLRLSCAASGFTFSNYWISWVRQAPGKGLEWVAEIRSESDASATHYAEAVKGRFTISRDNAKNSLYLQMNSLRAEDTAVYYCLAYFDYGLAIQNYWGQGTLVTVSS
VL: EIVLTQSPATLSLSPGERATLSCKASKRVTTYVSWYQQKPGQAPRLLIYGASNRYLGIPARFSGSGSGTDFTLTISSLEPEDFAVYYCSQSYNYPYTFGQGTKLEIK
[8]
  plasma CGRP 4 months after treatment cessation (V2), median (IQR): 34.3 pg/mL
  plasma CGRP at last injection (V1), median (IQR): 29.4 pg/mL
